The text below walks through data of patent US11000491B2, “Amino-aryl-benzamide compounds and methods of use thereof” (HEPANOVA, INC., priority 2017, dated 2021).

Read-outs that look alike come from different tables or passages of the source.

Common to all, as to format: cell-based
One assay relates to Huh7 cells. Nature of the assay: LD content in Huh7 cells pre-treated with insulin, Oil-Red-O staining, absorbance OD 540 nm. Conditions: procedure of Example 3, read-out: LD content inhibition (EC50). Put shortly: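 Huh7 cells, mock-treated or pre-treated with 1 mM insulin, were then exposed to compound at the indicated amounts. Lipid droplets stained with Oil Red O and quantified by absorbance at OD 540 nm.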

The next assay concerns SREBP-1. Put plainly: SREBP-1 expression in cultured primary human hepatocytes. Conditions: procedure of Example 6, read-out: SREBP-1 mRNA inhibition (EC50). The procedure, abridged:
(§1)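 Primary human hepatocytes in culture exposed to a range of HPN-01 derivative concentrations; SREBP-1 and SREBP-2 mRNA expression then measured to assess inhibition.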

A further assay has as its system SREBP-2. Nature of the assay: SREBP-2 expression in cultured primary human hepatocytes. The following applies: procedure of Example 6, read-out: SREBP-2 mRNA inhibition (EC50). Put shortly:
as §1

[1] abbreviates: Homo sapiens, Huh-7, Huh7 cells.

The term EC50 denotes the concentration at which the effect is half-maximal. On to `Cc1ccc(C(=O)OCC#Cc2cc(C(N)=O)c(N)c(-c3ccc(S(N)(=O)=O)cc3)c2)cc1` [HPN-01214, 3-(6-amino-5-carbamoyl-4′-sulfamoyl-[1,1′-biphenyl]-3-yl)prop-2-yn-1-yl 4-methylbenzoate], for which the EC50 was 0.52 µM in the assay with Huh7 cells (setting [1]); 3.42 µM in the assay on SREBP-1 (Homo sapiens, Hepatocyte); 6.32 µM in the assay on SREBP-2 (Homo sapiens, Hepatocyte).
With “(E)-2-amino-5-(3-((4-fluorophenethyl)amino)-3-oxoprop-1-en-1-yl)-4′-sulfamoyl-[1,1′-biphenyl]-3-carboxamide [HPN-01132]”, the results for the EC50 in the assay with Huh7 cells (Huh7 cells), in the assay with SREBP-1 and in the assay with SREBP-2 were 0.07 µM, 0.36 µM and 1.55 µM, respectively.
`NCCC(=O)Nc1c(C(N)=O)cc(-c2ccc(Cl)cc2)cc1-c1ccc(S(N)(=O)=O)cc1` [HPN-01517, 4′-(3-aminopropanamido)-4-chloro-4″-sulfamoyl-[1, 1′:3′,1″-terphenyl]-5′-carboxamide]: the figures for the EC50 in the assay on Huh7 cells (setting [1]), with SREBP-1 and in the assay with SREBP-2 were 0.48 µM, 1.96 µM and 2.94 µM, respectively.
Take “(E)-2-amino-5-styryl-4′-sulfamoyl-[1,1′-biphenyl]-3-carboxamide [HPN-01101]”: the EC50 with Huh7 cells (Huh7 cells) was determined as 0.57 µM; in the assay with SREBP-1, 2.96 µM; in the assay with SREBP-2, 6.98 µM.
`Cc1ccccc1C(=O)OCC#Cc1cc(C(N)=O)c(N)c(-c2ccc(S(N)(=O)=O)cc2)c1` [HPN-01212, 3-(6-amino-5-carbamoyl-4′-sulfamoyl-[1,1′-biphenyl]-3-yl)prop-2-yn-1-yl 2-methylbenzoate]: the EC50 in the assay on Huh7 cells (setting [1]) was determined as 0.75 µM; in the assay on SREBP-1 (Homo sapiens, Hepatocyte) it was 2.27 µM; in the assay on SREBP-2 (Homo sapiens, Hepatocyte) it was 1.85 µM.
For `NC(=O)c1cc(/C=C/c2ccc(Br)cc2)cc(-c2ccc(S(N)(=O)=O)cc2)c1N` [HPN-01109, (E)-2-amino-5-(4-bromostyryl)-4′-sulfamoyl-[1,1′-biphenyl]-3-carboxamide] the same measures were 1.37 µM, 2.71 µM and 4.46 µM.
With `CC(=O)Oc1cccc(/C=C/c2cc(C(N)=O)c(N)c(-c3ccc(S(N)(=O)=O)cc3)c2)c1` [HPN-01110, (E)-3-(2-(6-amino-5-carbamoyl-4′-sulfamoyl-[1,1′-biphenyl]-3-yl)vinyl)phenyl acetate], the EC50 was 0.81 µM in the assay on Huh7 cells (setting [1]); 2.26 µM with SREBP-1 (Homo sapiens, Hepatocyte); 3.6 µM in the assay with SREBP-2 (Homo sapiens, Hepatocyte).
`NC(=O)c1cc(/C=C/C(=O)Nc2ccc(O)cc2)cc(-c2ccc(S(N)(=O)=O)cc2)c1N` [HPN-01122, (E)-2-amino-5-(3-((4-hydroxyphenyl)amino)-3-oxoprop-1-en-1-yl)-4′-sulfamoyl-[1,1′-biphenyl]-3-carboxamide]: the EC50 worked out at 2.44 µM in the assay on Huh7 cells (setting [1]); 9.61 µM with SREBP-1 (Homo sapiens, Hepatocyte); 7.29 µM in the assay on SREBP-2 (Homo sapiens, Hepatocyte).
In the same order, the values of `CC(C)OC(=O)/C=C/c1cc(C(N)=O)c(N)c(-c2ccc(S(N)(=O)=O)cc2)c1` [HPN-01116, isopropyl (E)-3-(6-amino-5-carbamoyl-4′-sulfamoyl-[1,1′-biphenyl]-3-yl)acrylate] are 1.01 µM, 3.74 µM and 5.01 µM.
For `NC(=O)c1cc(/C=C/C(=O)NCc2ccccc2)cc(-c2ccc(S(N)(=O)=O)cc2)c1N` [HPN-01131, (E)-2-amino-5-(3-(benzylamino)-3-oxoprop-1-en-1-yl)-4′-sulfamoyl-[1,1′-biphenyl]-3-carboxamide] the same measures were 0.38 µM, 1.28 µM and 2.26 µM.
For `NC(=O)c1cc(-c2ccc(Cl)nc2)cc(-c2ccc(S(N)(=O)=O)cc2)c1N` [HPN-01307, 2-amino-5-(6-chloropyridin-3-yl)-4′-sulfamoyl-[1,1′-biphenyl]-3-carboxamide] the same measures were 1.36 µM, 5.68 µM and 4.59 µM.
As for `NC(=O)c1cc(-c2c[nH]c(Cl)c2)cc(-c2ccc(S(N)(=O)=O)cc2)c1N` [HPN-01310, 2-amino-5-(5-chloro-1H-pyrrol-3-yl)-4′-sulfamoyl-[1,1′-biphenyl]-3-carboxamide], the EC50 with Huh7 cells (setting [1]) is 10.5 µM; in the assay on SREBP-1 (Homo sapiens, Hepatocyte), 13 µM; in the assay with SREBP-2 (Homo sapiens, Hepatocyte) it was 23.9 µM.
Take `Nc1c(C(=O)NCCO)cc(-c2ccc(Br)cc2)cc1-c1ccc(S(N)(=O)=O)cc1` [HPN-01608, 4′-amino-4-bromo-N-(2-hydroxyethyl)-4″-sulfamoyl-[1,1′:3′,1″-terphenyl]-5′-carboxamide]: the EC50 is 1.2 µM in the assay on Huh7 cells (setting [1]); 2.39 µM in the assay on SREBP-1 (Homo sapiens, Hepatocyte); 4.31 µM with SREBP-2 (Homo sapiens, Hepatocyte).
In the same order, the values of `CC(=O)Nc1ccc(/C=C/c2cc(C(N)=O)c(N)c(-c3ccc(S(N)(=O)=O)cc3)c2)cc1` [HPN-01106, (E)-5-(4-acetamidostyryl)-2-amino-4′-sulfamoyl-[1,1′-biphenyl]-3-carboxamide] are 2.85 µM, 6.35 µM and 6.45 µM.
In the same order, the values of `NC(=O)c1cc(-c2ccc(Cl)cc2)cc(-c2ccc(S(N)(=O)=O)cc2)c1NCCO` [HPN-01531, 4-chloro-4′-((2-hydroxyethyl)amino)-4″-sulfamoyl-[1,1′:3′,1″-terphenyl]-5′-carboxamide] are 6.48 µM, 3.15 µM and 5.71 µM.
Take “decyl (E)-3-(6-amino-5-carbamoyl-4′-sulfamoyl-[1,1′-biphenyl]-3-yl)acrylate [HPN-01119]”: the EC50 with Huh7 cells (Huh7 cells) stood at 1.08 µM; in the assay with SREBP-1, 2.71 µM; with SREBP-2 it was 4.17 µM.
As to `COC(=O)c1ccc(-c2cc(C(N)=O)c(N)c(-c3ccc(S(N)(=O)=O)cc3)c2)cc1` [HPN-01301, methyl 4′-amino-5′-carbamoyl-4″-sulfamoyl-[1,1′:3′,1″-terphenyl]-4-carboxylate], the EC50 in the assay with Huh7 cells (setting [1]) worked out at 1.19 µM; in the assay with SREBP-1 (Homo sapiens, Hepatocyte) it was 3.44 µM; in the assay with SREBP-2 (Homo sapiens, Hepatocyte), 5.35 µM.
For `CCCCNc1c(C(N)=O)cc(-c2ccc(Cl)cc2)cc1-c1ccc(S(N)(=O)=O)cc1` [HPN-01533, 4′-(butylamino)-4-chloro-4″-sulfamoyl-[1,1′:3′,1″-terphenyl]-5′-carboxamide] the same measures were 0.48 µM, 2.83 µM and 11.7 µM.
Turning to `NC(=O)c1cc(C#Cc2ccc(Cl)cc2)cc(-c2ccc(S(N)(=O)=O)cc2)c1N` [HPN-01205, 2-amino-5-((4-chlorophenyl)ethynyl)-4′-sulfamoyl-[1,1′-biphenyl]-3-carboxamide], the EC50 worked out at 0.52 µM in the assay with Huh7 cells (setting [1]); 1.75 µM in the assay with SREBP-1 (Homo sapiens, Hepatocyte); 2.09 µM with SREBP-2 (Homo sapiens, Hepatocyte).
In the same order, the values of `COc1ccc(C#Cc2cc(C(N)=O)c(N)c(-c3ccc(S(N)(=O)=O)cc3)c2)cc1` [HPN-01204, 2-amino-5-((4-methoxyphenyl)ethynyl)-4′-sulfamoylbiphenyl-3-carboxamide] are 1.01 µM, 4.18 µM and 4.59 µM.
On to “4′-butyramido-4-chloro-4″-sulfamoyl-[1,1′:3′,1″-terphenyl]-5′-carboxamide [HPN-01515]”, for which the results for the EC50 in the assay on Huh7 cells (Huh7 cells), in the assay with SREBP-1 and with SREBP-2 were 0.48 µM, 0.95 µM and 1.32 µM, respectively.
Take `NC(=O)c1cc(-c2ccc(Br)cc2)cc(-c2ccc(S(N)(=O)=O)cc2)c1NC(=O)C1CC1` [HPN-01525, 4-bromo-4′-(cyclopropanecarboxamido)-4″-sulfamoyl-[1,1′:3′,1″-terphenyl]-5′-carboxamide]: the EC50 in the assay with Huh7 cells (setting [1]) is 1.45 µM; in the assay with SREBP-1 (Homo sapiens, Hepatocyte), 5.61 µM; with SREBP-2 (Homo sapiens, Hepatocyte), 10 µM.
For `NC(=O)c1cc(-c2ccc(Cl)cc2)cc(NCCc2ccc(S(N)(=O)=O)cc2)c1N` [HPN-01425, 4-amino-4′-chloro-5-((4-sulfamoylphenethyl)amino)-[1,1′-biphenyl]-3-carboxamide] the same measures were 6.48 µM, 2.83 µM and 3.44 µM.
